Read-outs that look alike come from different tables or passages of the source.
How the values were obtained:
5-HT1A receptors [1] = target: T1, 5-HT1A receptors (Rattus norvegicus, UniProt P19327); assay: [11C]WAY-100635-PET of rats treated with 5,7-DHT, a toxicant for 5-HT neurons; conditions: 150 µg into right lateral ventricle, scan more than 2 weeks later
T1 sequence (P19327 1-422): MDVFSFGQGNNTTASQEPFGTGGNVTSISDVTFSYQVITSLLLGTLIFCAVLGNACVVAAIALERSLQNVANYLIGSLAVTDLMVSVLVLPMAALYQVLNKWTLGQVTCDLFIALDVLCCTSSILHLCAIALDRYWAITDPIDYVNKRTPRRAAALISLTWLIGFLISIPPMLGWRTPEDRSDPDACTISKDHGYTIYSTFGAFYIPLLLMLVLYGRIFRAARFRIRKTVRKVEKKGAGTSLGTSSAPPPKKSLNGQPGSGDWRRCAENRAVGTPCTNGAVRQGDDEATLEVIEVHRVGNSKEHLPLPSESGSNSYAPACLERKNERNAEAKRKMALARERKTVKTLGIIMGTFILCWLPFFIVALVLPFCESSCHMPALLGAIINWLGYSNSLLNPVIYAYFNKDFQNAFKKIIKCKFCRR

5-HT1A receptors [2] = target: T1, 5-HT1A receptors; assay: Autoradiographic [35S]GTPγS binding in rat brain sections; format: biochemical; design: Twenty-micrometer-thick frozen brain sections were preincubated; from tissue; host or cells: rat brain (hippocampus and raphe nucleus): frozen sections or living animals
Protocol: Autoradiographic procedures were performed as described previously, with some modifications. The sections were preincubated for 15 min in 50 mM 4-(2-hydroxyethyl)-1-piperazineethanesulfonic acid (HEPES; pH 7.4) containing 10 mM NaCl, 3 mM MgCl2 and 0.2 mM ethylene glycol tetraacetic acid. A second preincubation using the same buffer containing 2 mM GDP was performed for 15 min. The sections were subsequently incubated in the same buffer containing 2 mM GDP, 0.2 mM dithiothreitol and 0.04 nM [^35S]GTPγS for 120 min. Basal [^35S]GTPγS binding was defined in the absence of test drugs. […] Nonspecific binding was estimated using 10 µM nonradioactive GTPγS. The incubation was terminated by ice-cold 50 mM HEPES (pH 7.0). The sections were desalted with ice-cold distilled water, dried, and placed in contact with an imaging plate for 2 days. Signal detection and image analysis were performed as described above.

5-HT1A receptors [3] = conditions: maximal safe dose; cited from earlier work
[4] = rats; cited from earlier work
5-HT1A receptors [5] = target: T1, 5-HT1A receptors; assay: [11C]WAY-100635-PET, BPND and 5-HT1A receptor occupancy; format: in vivo; design: Twenty-micrometer-thick frozen brain sections were preincubated; from tissue; host or cells: rat brain (hippocampus and raphe nucleus): frozen sections or living animals; conditions: for BPND Hippocampus / BPND Raphe: [11C]WAY-100635; for receptor occupancy at 3 mg/kg / ED50 / receptor occupancy at 1 mg/kg / receptor occupancy at 10 mg/kg / receptor occupancy at 30 mg/kg: rat, ip; for ED50: read-out: ED50 (5-HT1A receptor occupancy), intraperitoneal, PET
Protocol: All PET scans were carried out using a microPET Focus 220 scanner (Siemens Medical Solutions USA, Knoxville, TN). The rats were anesthetized with 1.5–2% isoflurane in air (2 L/min flow rate). […] All list-mode data were stored into 3D sinograms, which were then Fourier-rebinned into 2D sinograms (26 frames: 4×1, 8×2, and 14×5 min). Images were reconstructed using 2D-filtered back-projection with a 0.5-mm Hanning filter. All PET images were manually coregistered to the MRI template by spatial translation and rotation of original PET images without geometric expansion and contraction. ROIs were placed on the hippocampus and raphe nucleus using PMOD® image analysis software (PMOD Group, Zurich, Switzerland) with reference to the MRI template. Fine-tuning of the location of ROIs was then performed based on PET images at an early phase (0–30 min) of the scan in order to compensate for small mismatches between coregistered PET and MR images. The cerebellum was used as reference tissue because of its negligible density of 5-HT1A receptors.

5-HT1A receptors [6] = target: T1, 5-HT1A receptors; assay: Ex vivo ARG, 5-HT1A receptor occupancy after drug administration; format: in vivo; design: Twenty-micrometer-thick frozen brain sections were preincubated; from tissue; host or cells: rat brain (hippocampus and raphe nucleus): frozen sections or living animals; conditions: for ED50: rat, ip, read-out: ED50 (5-HT1A receptor occupancy), intraperitoneal, ex vivo ARG
Protocol: Animals were then killed by decapitation 5 h and 30 min after their administration, respectively. Autoradiographic analysis was performed using procedures similar to in vitro ARG except for incubation temperature (37°C) and times for preincubation (30 sec), incubation (5 min) and rinsing (1 min). […] The doses of these drugs at half-maximal effect (ED50) were determined according to the following relationship: [drawing 2] where D is the dose of the drug.

[7] = humans; cited from earlier work
5-HT1A receptors [8] = target: T1, 5-HT1A receptors; assay: In vitro ARG, inhibition of [11C]WAY-100635 binding in rat brain sections; design: Twenty-micrometer-thick frozen brain sections were preincubated; from tissue; host or cells: rat brain (hippocampus and raphe nucleus): frozen sections or living animals; conditions: hippocampus and raphe nucleus; up to 1000 nM
Protocol: Rats were sacrificed by decapitation. Twenty-micrometer-thick frozen brain sections were preincubated for 30 min in 50 mM Tris-HCl (pH 7.4) containing 1 mM MnCl2. […] Subsequently, the sections were rinsed twice with ice-cold Tris-HCl buffer for 5 min and then desalted with ice-cold distilled water for 10 sec. These samples were warmly blow-dried and placed in contact with an imaging plate (Fuji Film, Tokyo, Japan) for 60 min. Signals on the imaging plate were detected by BAS5000 system (Fuji Film).

[9] = 1 mg/kg intraperitoneal, about 30 min before scan, mean ± S.E.
[10] = 3 mg/kg intraperitoneal + 30 mg/kg fluvoxamine (FLV) oral 30 min before pindolol, mean ± S.E.
[11] = 3 mg/kg intraperitoneal, about 30 min before scan, mean ± S.E.
[12] = 10 mg/kg intraperitoneal, about 30 min before scan, mean ± S.E.
[13] = 30 mg/kg intraperitoneal, about 30 min before scan, mean ± S.E.
[14] = read-out: Occupancy (%) Hippocampus

NCCc1c[nH]c2c(O)cc(O)cc12 [5,7-DHT, 5,7-dihydroxytryptamine, reference compound]
BPND for [11C]WAY-100635 after toxicant treatment (5-HT1A receptors [1]; hippocampus): almost unchanged | BPND for [11C]WAY-100635 after toxicant treatment (5-HT1A receptors [1]; raphe nucleus): profoundly decreased

CC(C)NCC(O)COc1cccc2[nH]ccc12 (stereo not drawn) [Pindolol, reference compound]
Slight increase in [35S]GTPγS binding (5-HT1A receptors [2]; high concentrations, hippocampus and raphe nucleus, p>0.05): not statistically significant | Occupancy of 5-HT1A autoreceptors (5-HT1A receptors [3]): 60% | Proportion of protein-bound drug in plasma or serum [4]: 52% | BPND Hippocampus (5-HT1A receptors [5]; [9]): 4.787±0.676 | BPND Raphe (5-HT1A receptors [5]; [9]): 1.129±0.164 | BPND Hippocampus (5-HT1A receptors [5]; [10]): 3.670±0.315 | BPND Raphe (5-HT1A receptors [5]; [10]): 0.783±0.178 | BPND Hippocampus (5-HT1A receptors [5]; [11]): 3.517±0.119 | BPND Raphe (5-HT1A receptors [5]; [11]): 0.752±0.093 | BPND Hippocampus (5-HT1A receptors [5]; [12]): 2.190±0.757 | BPND Raphe (5-HT1A receptors [5]; [12]): 0.459±0.153 | BPND Raphe (5-HT1A receptors [5]; 30 mg/kg intraperitoneal + 30 mg/kg fluvoxamine (FLV) oral 30 min before pindolol): 0 | BPND Hippocampus (5-HT1A receptors [5]; 30 mg/kg intraperitoneal + 30 mg/kg fluvoxamine (FLV) oral 30 min before pindolol, mean ± S.E.): 0.343±0.065 | BPND Hippocampus (5-HT1A receptors [5]; [13]): 0.441±0.173 | BPND Raphe (5-HT1A receptors [5]; [13]): 0.029±0.029 | receptor occupancy at 3 mg/kg (5-HT1A receptors [5]; read-out: Difference in occupancy between hippocampus and raphe nucleus): ~50% | ED50 (5-HT1A receptors [5]; hippocampus): 5.6 mg/kg | ED50 (5-HT1A receptors [5]; raphe nucleus): 2.4 mg/kg | receptor occupancy at 1 mg/kg (5-HT1A receptors [5]; [14]): 15 ± 11.8% | receptor occupancy at 3 mg/kg (5-HT1A receptors [5]; [14]): 37 ± 5.6% | receptor occupancy at 10 mg/kg (5-HT1A receptors [5]; [14]): 58.1 ± 18.4% | receptor occupancy at 30 mg/kg (5-HT1A receptors [5]; [14]): 91.8 ± 3.4% | receptor occupancy at 1 mg/kg (5-HT1A receptors [5]; read-out: Occupancy (%) Raphe): 33.7 ± 14.5% | receptor occupancy at 3 mg/kg (5-HT1A receptors [5]; read-out: Occupancy (%) Raphe): 57.3 ± 2.8% | receptor occupancy at 10 mg/kg (5-HT1A receptors [5]; read-out: Occupancy (%) Raphe): 69.6 ± 14.6% | receptor occupancy at 30 mg/kg (5-HT1A receptors [5]; read-out: Occupancy (%) Raphe): 98.3 ± 1.7% | 5-HT1A receptor binding (occupancy), dose-dependent up to (5-HT1A receptors [6]; intraperitoneal, 30 min after administration, irrespective of region): ~70% | ED50 (5-HT1A receptors [6]; hippocampus): 8.5 mg/kg | ED50 (5-HT1A receptors [6]; raphe nucleus): 7.3 mg/kg | Proportion of protein-bound drug in plasma or serum [7]: 57% | Blockage of 5-HT1A receptors by excess amounts of drug (5-HT1A receptors [8]): near-complete blockage

COCCCC/C(=N\OCCN)c1ccc(C(F)(F)F)cc1 [fluvoxamine, reference compound]
Effect on 5-HT1A receptor occupancies by pindolol (5-HT1A receptors [5]; 30 mg/kg oral, 30 min before pindolol treatment): had no effect

CCCN(CCC)C1CCc2cccc(O)c2C1 (stereo not drawn) [8-OH-DPAT, 8-hydroxy-2-(di-n-propylamino) tetralin]
[35S]GTPγS binding (5-HT1A receptors [2]; hippocampus and raphe nucleus, addition of agonist): enhanced | [35S]GTPγS binding compared with 1 µM WAY-100635 (5-HT1A receptors [2]; raphe nucleus, 1 µM, p<0.01): significantly increased
